Source: patent publication US20220204540A1, “ESTERS OF NON- AROMATIC HETEROCYCLIC COMPOUNDS HAVING A NEMATOCIDAL ACTIVITY, THEIR AGRONOMIC COMPOSITIONS AND USE THEREOF” (ISAGRO S.p.A., priority 2019, published 2022)

Tested on: Meloidogyne sp.
Experiment: Nematocidal activity against Meloidogyne sp. on potted cucumber/tomato plants in greenhouse (soil treatment)
Assay type: in vivo
Conditions: for GALL INDEX (scale 0-10) / FRESH WEIGHT OF PLANT: cucumber cv Chinese Long; for GALL INDEX (scale 0-10): dose applied 2 kg/hectare (2000 g/hectare), survey 30 days after transplantation, Bridge-Page scale, 0 = 0% of root affected, 10 = 100% infested root; for FRESH WEIGHT OF PLANT: dose applied 2 kg/hectare, healthy blank 23 g, infested blank 3.5 g; for FRESH WEIGHT OF PLANT / effectiveness with respect to the reference products (CR1, CR2), in words: 30 days after transplantation; for effectiveness with respect to the reference products (CR1, CR2), in words: Table 6, cucumber, 2 kg/hectare
Description: sDetermination of the Nematocidal Activity Against Meloidogyne sp.
The tests aimed at testing the nematicidal activity of the product under examination were carried out using inoculae taken from a farming of Meloidogyne sp. maintained on potted tomato and cucumber plants and grown in greenhouses.
To carry out the experiments, portions of roots having a good number of galls and soil were taken from the infested pots, in which larvae were present starting from the second stage of age.
New pots having a diameter of 15 cm were half filled with sterile soil. The portions of infested roots, previously cleaned, were placed on the same in order to be able to correctly assess the degree of infestation and ensure that each pot contains the same nematic charge. 200-300 g of infested soil were subsequently added, then covered with a thin layer of sterile soil.
The treatment was carried out by pouring 100 ml of solution on the surface of the soil, in which the product to be tested was dissolved.
Tomato or cucumber seedlings at the stage of two or three true leaves were transplanted in the pots thus prepared, one or seven days after application. Different cultivars of tomato or cucumber were used, having a different sensitivity to the parasite and different growth times. In particular, a variety of ornamental tomatoes (cv Microtom), whose seedlings are small in size and are able to reach the ripeness of the fruit in pots and under greenhouse conditions in about two months, was used for assessing the final production.
The containment capacity of the parasite was detected, 30 and 60 days after transplantation, considering the development of the root system (where 100% is the development reached by the healthy comparative root), the fresh weight of the plants treated expressed in grams, and the presence of galls on the roots. The latter was estimated using the infestation scale proposed by Bridge-Page, according to which the value zero corresponds to 0% of the root affected and the value 10 corresponds to 100% of infested root.
Table 6 indicates the results relating to the effectiveness on cucumbers, cv Chinese Long, treating with Compounds Nr. 23, 620, 1, 13, 5, 15, 16, 624 and 625 included in general formula (I) and the reference compounds CR1=Fluensulfone and CR2, described in JP 2000038379, instead of the compound having general formula (I), at a dose of 2000 g/hectare and effecting the survey 30 days after transplantation.

O=S(=O)(CCC(F)=C(F)F)c1ncc(Cl)s1 [CR1, 5-chloro-2-(3,4,4-trifluoro-3-butenylsulfonyl)-thiazole, reference compound]
GALL INDEX (scale 0-10): 2
FRESH WEIGHT OF PLANT: 5.5 g

O=C(OCCC(F)=C(F)F)c1cccnc1 [CR2, pyridyl-3-carboxylate of 3,4,4-trifluoro-3-butenyl, reference compound]
GALL INDEX (scale 0-10): 2.9
FRESH WEIGHT OF PLANT: 17.5 g

CC(=O)N1C(C(=O)OCCC(F)=C(F)F)COC1(C)C(F)(F)F (stereo not shown) [Compound 16, (N-acetyl-2-trifluoromethyl-2-methyl)-1,3-oxazolidine-4-carboxylate of 3,4,4-trifluoro-3-butenyl]
effectiveness with respect to the reference products (CR1, CR2), in words: comparable or greater effectiveness
GALL INDEX (scale 0-10): 2.9
FRESH WEIGHT OF PLANT: 18 g

CC(=O)N1CCC[C@H]1C(=O)OCCC(F)=C(F)F [Compound 624, N-acetyl-L-proline 3,4,4-trifluorobut-3-en-1-yl ester]
effectiveness with respect to the reference products (CR1, CR2), in words: comparable or greater effectiveness
GALL INDEX (scale 0-10): 1.5
FRESH WEIGHT OF PLANT: 21 g

O=C(OCCC(F)=C(F)F)[C@@H]1CCCN1C(=O)C(F)(F)F [Compound 625, N-trifluoroacetyl-L-proline 3,4,4-triflluorobut-3-en-1-yl ester]
effectiveness with respect to the reference products (CR1, CR2), in words: comparable or greater effectiveness
GALL INDEX (scale 0-10): 2.5
FRESH WEIGHT OF PLANT: 22 g

N-acetyl-1,3-thiadiazolidine-4-carboxylate of 3,4,4-trifluoro-3-butenyl [Compound 23]
effectiveness with respect to the reference products (CR1, CR2), in words: comparable or greater effectiveness
GALL INDEX (scale 0-10): 2
FRESH WEIGHT OF PLANT: 23 g
